In patent US8551961B2, “Localized delivery of cardiac inotropic agents” (Massachusetts Institute of Technology, priority 2005, dated 2013):
“Also recorded” adds a separate entry of the source.

Tested on: Sprague Dawley rats
Test: Pericardial application of dobutamine to the left ventricular free wall in anesthetized rats, hemodynamic recording
Assay type: in vivo, rat
Excerpt: Sprague Dawley rats ([…]) were anesthetized with an intraperitoneal injection of ketamine and xylazine. The rat was laid on a heating pad and maintained euthermic with warming lights. A 24 gauge intravenous catheter was placed in the tail vein and Ringer's lactate solution (LR) was infused at 10 cc/hr. The trachea was exposed through a vertical incision and cannulated with a 16 gauge blunt cannula that served as an endotracheal tube. The tube was connected to a ventilator for control of ventilation and respiration. The respiratory rate was set to 60 breaths per minute, inspiratory to expiratory time was set to 1:2 and inspiratory flow was 2 liters per minute. A midline sternotomy was performed, the heart exposed and the pericardium resected. The right carotid artery was dissected clean of fascia and care was taken to preserve the adjacent vagus nerve. A polyethelene (PE-50) cannula was inserted via an arteriotomy into the carotid artery and advanced through the ascending aorta into the left ventricle. This ventricular cannula was connected to a high fidelity pressure transducer and digital data acquisition system to record hemodynamic measures. Heart rate (HR), left ventricular systolic blood pressure (SBP), and the maximum rate of change of blood pressure in the left ventricle during isovolemic contraction (dp/dt max) was all recorded. The dp/dt max is the gold standard index of myocardial contractility.
Following cannulation the rat was stabilized for 30 minutes. Five-second recordings of HR, SBP and dp/dt max were captured every 3 to 5 minutes. SBP and dp/dt max were averaged over all the beats captured in the 5-second interval. Dobutamine (313 mcg/ml), a potent beta agonist inotropic agent, was delivered to the left ventricular free wall through the sternotomy using an infusion pump connected to a 24 gauge IV cannula that was suspended directly over the heart (4 mcg/min, 0.8 ml/hr). […] After 30 minutes the pericardial application of dobutamine was terminated and hemodynamic measurements were recorded for an additional 30 minutes.

CC(CCc1ccc(O)cc1)NCCc1ccc(O)c(O)c1 (stereo not drawn) [dobutamine]
Left ventricular systolic blood pressure / systemic blood pressure (dobutamine 4 mcg/min for 30 minutes, local pericardial delivery, FIG. 2): increased | Heart rate (dobutamine 4 mcg/min for 30 minutes, topical application to the heart, FIG. 3): increased | Contractility (max dp/dt of left ventricular pressure during isovolemic contraction) (dobutamine 313 mcg/ml, 4 mcg/min (0.8 ml/hr) for 30 minutes, applied directly to left ventricular free wall, FIG. 1): increased significantly; also recorded: significantly increased
